Experimental data reported in publication PMC9112550, “Optimization of the antimicrobial peptide Bac7 by deep mutational scanning” (BMC Biology, 2022).
Where no end group is shown, it is not given here.

What was measured:
[1] = system: E. coli clinical isolates; assay type: cell-based; conditions: clinical isolates of E. coli (n=45) including MDR (ESBL, CRE); MHB II; 18 h, 37°C
Method: (§1) Bacterial cells were grown in cation-adjusted Mueller Hinton Broth (MHB II) overnight to stationary phase. The cultures were then supplemented with 200 g l^−1 glycerol, aliquoted, and frozen at −80°C. […] The purified peptides were thawed and the concentration was determined by RP-HPLC as described before. The peptides were diluted with sterile water to 4-fold the desired assays starting concentration and to a final volume of 50 μl. […] The first well of each MIC dilution series was filled with 20 μl of 2-fold concentrated MHB II, wells 2–11 with 20 μl of MHB II, and well 12 with 40 μl MHB II (sterility control). Next, 20 μl of the peptide dilution was added to the first well, mixed, and a log2-serial dilution was performed from wells 1 to 10 (20 μl transfer volume). Well 11 served as growth control (i.e., no peptide added). In the last step, 20 μl of the bacterial cell suspension was added to wells 1–11 either using the pipetting robot (E. coli TOP10, BW25113, BW25113 ΔsbmA, and ATCC 25922) or by manual pipetting (E. coli clinical isolates). The plates were sealed airtight and incubated for 18 h without shaking at 37°C before reading the OD using an Infinite 200 PRO plate reader (Tecan, Männedorf, CH). The MIC value corresponded to the concentration at which no growth of the bacterial strain was observed (< 5% of the OD value of the growth control) and was evaluated using a custom-written script in the programming language R. MIC values of E. coli TOP10, BW25113, BW25113 ΔsbmA, and ATCC 25922 were determined at least in biological triplicates. All MIC experiments were determined in technical replicate.

[2] = system: E. coli TOP10; assay type: cell-based
Method: as §1

[3] = system: E. coli BW25113; assay type: cell-based; conditions: E. coli BW25113 parental strain; MHB II; 18 h, 37°C; averaged (n>3)
Method: as §1

[4] = system: E. coli ATCC 25922; assay type: cell-based; conditions: E. coli ATCC 25922 quality control strain; MHB II; 18 h, 37°C; averaged (n>3)
Method: as §1

[5] = system: E. coli BW25113 ΔsbmA; assay type: cell-based; conditions: MHB II, 18 h, 37°C, averaged (n>3)
Method: as §1

[6] = system: HEK 293 cells; assay type: cell-based, human; conditions: MTT, 24 h, 37°C, triplicates, read-out: Toxicity IC50
Method: HeLa epithelioid cervix carcinoma cells (originally purchased: 93021013, Sigma Aldrich) and HEK 293 human embryonic kidney (originally purchased: 85120602, Sigma Aldrich) were routinely cultivated in Dulbecco’s MEM high glucose (DMEM, with L-glutamine, without phenol red, 1-26P32, Bioconcept, Allschwil, CH), supplemented with 10% fetal bovine serum (heat inactivated, sterile filtered, F9665, Sigma Aldrich) and 100 IU ml^−1/100 μg ml^−1 Penicillin/streptomycin (4-01F00, Bioconcept) at 37°C with 5% CO2. Cells were split at a confluency of ≤ 90% (every 3 to 4 days) and maintained for max. 10 passages before a fresh aliquot of cells were seeded. […] The cell concentration was determined using a Countess 2 device (Thermo Fisher Scientific) and approx. 5000 (HeLa) or 25,000 (HEK 293) cells were seeded into wells of a 96-well plate (F-bottom, PS, 655180, Greiner) together with 100 μl DMEM. […] For each dilution series, the IC50 value was determined by computing a weighted n-parameters logistic regression using the “nplr” package in R (https://CRAN.R-project.org/package=nplr). […]

RRIRIRPPRLPRPRPRPYFMPRP [Bac7PS]
MIC50 [1]: 2.9 µM | reduction of the MIC vs Bac7_1-23 [2]: approximately twofold | MIC ([2]; MHB II, 18 h, 37°C, averaged (n>3), <5% of OD of growth control): 2.1 µM | MIC [3]: 3.6 µM | MIC [4]: 2.6 µM | MIC [5]: 14.4 µM | IC50 [6]: 755 µM
